According to article PMC5511785 (Journal of pharmaceutical sciences, 2017):
Where two headings read alike, the source gives them in different places.

Legend:
[1] = molecular target: T1, GFP-OATP1B3 (Homo sapiens, UniProt Q9NPD5); assay: [3H]-E217βG accumulation in HEK293-GFP-OATP1B3 cells
T1 sequence (Q9NPD5 1-702): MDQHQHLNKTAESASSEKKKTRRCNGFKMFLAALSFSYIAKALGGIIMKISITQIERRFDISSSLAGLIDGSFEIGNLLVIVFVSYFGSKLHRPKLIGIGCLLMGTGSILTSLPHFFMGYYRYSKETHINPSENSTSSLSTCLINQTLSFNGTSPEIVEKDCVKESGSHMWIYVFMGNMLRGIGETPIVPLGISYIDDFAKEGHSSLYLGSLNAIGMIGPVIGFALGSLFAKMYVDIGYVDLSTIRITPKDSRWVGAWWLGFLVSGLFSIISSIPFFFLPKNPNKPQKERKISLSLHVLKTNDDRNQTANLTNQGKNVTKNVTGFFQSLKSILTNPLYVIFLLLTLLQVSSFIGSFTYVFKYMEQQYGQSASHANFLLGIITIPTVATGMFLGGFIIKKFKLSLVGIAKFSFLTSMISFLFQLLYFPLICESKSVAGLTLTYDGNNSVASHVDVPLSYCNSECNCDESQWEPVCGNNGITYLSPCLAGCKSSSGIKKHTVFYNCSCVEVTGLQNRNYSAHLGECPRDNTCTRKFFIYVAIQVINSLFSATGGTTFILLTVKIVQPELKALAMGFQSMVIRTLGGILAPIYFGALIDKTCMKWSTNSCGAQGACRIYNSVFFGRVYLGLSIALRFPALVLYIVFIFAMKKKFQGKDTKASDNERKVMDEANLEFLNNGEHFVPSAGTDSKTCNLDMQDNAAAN

[2] = molecular target: T2, OATP1B3 (Homo sapiens, UniProt Q9NPD5); assay: cell-based; conditions: [3H]-E217βG 1 μM, 2 min, HEK293-OATP1B3
T2 sequence (Q9NPD5 1-702): T1 sequence (Q9NPD5 1-702)

[3] = system: OATP1B1; conditions: 1–25 μM; cited from earlier work
[4] = system: GFP-OATP1B1; format: cell-based, human
[5] = molecular target: T3, OATP1B1 (Homo sapiens, UniProt Q9Y6L6); assay: OATP1B1-mediated [3H]-E1S accumulation; format: cell-based; conditions: 1 μM, 30 min or 1 h
T3 sequence (Q9Y6L6 1-691): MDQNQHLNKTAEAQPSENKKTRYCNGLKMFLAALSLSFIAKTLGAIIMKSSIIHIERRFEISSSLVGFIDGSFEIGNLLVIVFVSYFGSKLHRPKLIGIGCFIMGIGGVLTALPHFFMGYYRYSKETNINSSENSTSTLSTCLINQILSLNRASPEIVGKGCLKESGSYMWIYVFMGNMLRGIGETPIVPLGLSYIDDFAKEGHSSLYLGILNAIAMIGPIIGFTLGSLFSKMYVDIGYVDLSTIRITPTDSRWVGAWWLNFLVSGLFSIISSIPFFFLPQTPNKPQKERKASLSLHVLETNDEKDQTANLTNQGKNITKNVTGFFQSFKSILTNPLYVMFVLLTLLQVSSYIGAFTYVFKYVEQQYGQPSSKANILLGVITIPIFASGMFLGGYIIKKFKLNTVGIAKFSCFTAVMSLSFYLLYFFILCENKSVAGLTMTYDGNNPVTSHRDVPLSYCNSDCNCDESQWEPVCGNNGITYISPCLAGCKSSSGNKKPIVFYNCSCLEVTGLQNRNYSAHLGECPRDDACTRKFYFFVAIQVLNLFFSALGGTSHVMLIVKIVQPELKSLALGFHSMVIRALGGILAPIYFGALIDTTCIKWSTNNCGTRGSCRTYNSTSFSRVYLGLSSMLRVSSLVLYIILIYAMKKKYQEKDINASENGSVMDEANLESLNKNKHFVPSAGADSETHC

[6] = molecular target: T3, OATP1B1
[7] = system: GFP-OATP1B3; format: cell-based, human
[8] = molecular target: T3, OATP1B1; assay: OATP1B1-mediated [3H]-pitavastatin accumulation; format: cell-based; conditions: 10 μM, 1 h pre-incubation
[9] = molecular target: T4, GFP-OATP1B1 (Homo sapiens, UniProt Q9Y6L6); assay: [3H]-E217βG accumulation in HEK293-GFP-OATP1B1 cells
T4 sequence (Q9Y6L6 1-691): T3 sequence (Q9Y6L6 1-691)

[10] = molecular target: T3, OATP1B1; assay: cell-based; conditions: [3H]-E217βG 1 μM, 2 min, HEK293-OATP1B1
[11] = Estimated maximum unbound inhibitor concentration at the inlet to the liver; set-up: species or system human; conditions: Supplemental Table S2
[12] = system: OATP1B3; assay: Immunoblot of total OATP1B3 protein in HEK293-OATP1B3 cells; format: cell-based, human; conditions: 10 μM, 1 h
[13] = system: OATP1B1; assay: Immunoblot of total OATP1B1 protein in HEK293-OATP1B1 cells; format: cell-based, human; conditions: 10 μM, 1 h
[14] = system: HEK293-OATP1B1 and -1B3 cells; conditions: 1 h treatment; rifampicin up to 25 μM, dasatinib up to 20 μM
[15] = co-administration of dasatinib with simvastatin; cited from earlier work
[16] = cited from earlier work
[17] = system: OATP1B1; conditions: co-incubation with 10 μM; cited from earlier work
[18] = cited from earlier work; remark: listed apart in the source
[19] = molecular target: T2, OATP1B3
[20] = IC50, co-incubation, without pretreatment
[21] = IC50, pre+co-incubation (1 h pretreatment)
[22] = 20 μM, up to at least 1 h (data not shown)
[23] = substrate kinetics, vehicle control pretreatment, mean ± SD, n=3
[24] = unlabeled E217βG 1–30 μM, 0.5 and 1 h

Question: Which results are given for `CO[C@H]1/C=C/O[C@@]2(C)Oc3c(C)c(O)c4c(O)c(c(/C=N/N5CCN(C)CC5)c(O)c4c3C2=O)NC(=O)/C(C)=C\C=C\[C@H](C)[C@H](O)[C@@H](C)[C@@H](O)[C@@H](C)[C@H](OC(C)=O)[C@@H]1C` [Rifampicin]?
Answer: Effect of pretreatment on [3H]-E217βG accumulation in HEK293-GFP-OATP1B3 ([1]; 10 μM for 0.5 and 1 h): significantly decreased; IC50 [2, 20]: 0.26 ± 0.03 µM; IC50 [2, 21]: 0.1 ± 0.01 µM; Effect of pre-incubation on OATP1B1-mediated [3H]-E1S transport [3]: did not significantly affect; Plasma membrane localization of GFP-OATP1B1 ([4]; 10 μM, 1–61 min): primarily localized at the plasma membrane; Effect of pretreatment on OATP1B1-mediated [3H]-E1S transport [5]: did not affect; Effect of pre-incubation on OATP1B1-mediated [3H]-E217βG transport ([6]; 1 – 25 μM for 0.5 h and 0.5 – 25 μM for 1 h, washed): significantly decreased; Change of Km of OATP1B1-mediated E217βG transport vs control ([6]; pretreatment 10 μM, 1 h): ~ 1.5 fold; Decrease of Vmax of OATP1B1-mediated E217βG transport vs control ([6]; pretreatment 10 μM, 1 h): ~ 3.5 fold; Plasma membrane localization of GFP-OATP1B3 ([7]; 10 μM, 1–61 min): primarily localized at the plasma membrane; Effect of pre-incubation on OATP1B1-mediated [3H]-pitavastatin accumulation [8]: significantly decreased; Effect of pretreatment on [3H]-E217βG accumulation in HEK293-GFP-OATP1B1 ([9]; 10 μM for 0.5 and 1 h): significantly decreased; IC50 [10, 20]: 0.74 ± 0.08 µM; IC50 [10, 21]: 0.24 ± 0.03 µM; Maximum possible unbound concentration at the inlet to the liver (Iu,in,max) [11]: 10.7 µM; Total protein level of OATP1B3 vs vehicle control [12]: similar; Total protein level of OATP1B1 vs vehicle control [13]: similar

Question: Which LDH cytotoxicity [14] does the source give for `Cc1nc(Nc2ncc(C(=O)Nc3c(C)cccc3Cl)s2)cc(N2CCN(CCO)CC2)n1` [Dasatinib] here?
Answer: negligible toxicity

Question: And the “Plasma membrane localization of GFP-OATP1B1” value [4, 22]?
Answer: did not cause an obvious change

Question: And the “Increase of AUC of simvastatin” value [15]?
Answer: 20%

Question: And the “Increase of AUC of simvastatin acid” value [15]?
Answer: 27%

Question: And the ka ([16]; first-order absorption rate constant)?
Answer: 6 h⁻¹

Question: And the fa ([16]; fraction available for absorption from dosage form, meta-analysis)?
Answer: 0.781

Question: And the Vss ([16]; from allometric scaling)?
Answer: 4.2 L/kg

Question: And the CLPO ([16]; observed value (CV% 106.5))?
Answer: 449.4 L/h

Question: And the CLR ([16]; observed value)?
Answer: 0.4 L/h

Question: What about the “Decrease of OATP1B1-mediated [3H]-E217βG transport” value [17] of the same molecule?
Answer: ~ 70%

Question: And the “Effect of pretreatment on OATP1B1-mediated [3H]-E217βG accumulation” value ([6]; 5 - 20 μM for 0.5 and 1 h)?
Answer: significantly decreased

Question: What about the “Plasma membrane localization of GFP-OATP1B3” value [7, 22] of the same molecule?
Answer: did not cause an obvious change

Question: What about the IC50 [10, 20] of the same molecule?
Answer: 4.81 ± 1.7 µM

Question: What about the IC50 [10, 21] of the same molecule?
Answer: 2.33 ± 0.86 µM

Question: What about the pKa1 [18] of the same molecule?
Answer: 6.8

Question: And the pKa2 [18]?
Answer: 10.8

Question: And the “Log PO:W” value ([18]; neutral species octanol:buffer partition coefficient)?
Answer: 1.8

Question: And the “Total protein level of OATP1B3 vs vehicle control” value [12]?
Answer: similar

Question: And the “Total protein level of OATP1B1 vs vehicle control” value [13]?
Answer: similar

Question: Which results are given for `C[C@]12CC[C@@H]3c4ccc(O)cc4CC[C@H]3[C@@H]1CC[C@@H]2O[C@@H]1O[C@H](C(=O)O)[C@@H](O)[C@H](O)[C@H]1O` [E217βG, estradiol 17β-D-glucuronide]?
Answer: [3H]-E217βG accumulation vs HEK293-Mock cells ([1]; 1 μM, 2 min, HEK293-GFP-OATP1B3 (data not shown)): ~ 34 fold; Vmax of E217βG transport mediated by OATP1B1 [6, 23]: 55.2 ± 1.6 pmol/mg protein/min; Effect of pretreatment on OATP1B1-mediated transport of [3H]-E217βG [6, 24]: only slightly decreases or has no effect; [3H]-E217βG accumulation vs HEK293-Mock cells ([9]; 1 μM, 2 min, HEK293-GFP-OATP1B1 (data not shown)): 390 fold; Vmax of E217βG transport mediated by OATP1B3 [19, 23]: 15.8 ± 1.6 pmol/mg protein/min; Effect of pretreatment on OATP1B3-mediated transport of [3H]-E217βG [19, 24]: only slightly decreases or has no effect
